US20240209028A1, “CNP COMPOUNDS” (priority 2022, published 2024)
Values after ≈ are worked out from the molar mass of the structure shown. Read-outs that look alike come from different tables or passages of the source. Starred links: 1 amine or outer side, 2 acyl side, 3 side chain; linkers in the order of their positions; H or OH if unused. Positions of bridges follow the written chain, without caps; N, C: chain ends. Residues, ends and D or L forms follow the SMILES beside them. *: point of attachment. C18 diacid = O=C(O)CCCCCCCCCCCCCCCCC(=O)*; γGlu = O=C(O)[C@H](CCC(=O)[*:2])N[*:1]; AEEA = NCCOCCOCC(=O)O

Test: Solubility of CNP compounds at pH 4.0 and pH 6.5
Assay type: physicochemical
Summary of the method: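 Supernatant peptide concentration was quantified by CAD after overnight room-temperature equilibration of incompletely dissolved samples. Nominal loading was ≥4000-5000 nmol/mL. Media were pH 4.0 sodium acetate 5 mM/glycerol 250 mM, or pH 6.5 sodium phosphate 8 mM/glycerol 23 mg/mL reached by stepwise NaOH addition.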

[1] = 8 mM sodium phosphate, 23 mg/mL glycerol, pH 6.5, room temperature, read-out: Solubility at pH 6.5

CC[C@H](C)[C@@H]1NC(=O)[C@H](CCCNC(=N)N)NC(=O)[C@H](CC(=O)O)NC(=O)[C@H](CC(C)C)NC(=O)[C@@H]2CCCN2C(=O)[C@H](CC(C)C)NC(=O)CNC(=O)[C@H](Cc2ccccc2)NC(=O)[C@@H](NC(=O)CNC(=O)[C@H](CCC(N)=O)NC(=O)[C@H](CO)NC(=O)[C@H](CC(C)C)NC(=O)CNC(=O)[C@H](CCCCN)NC(=O)[C@H](CCCCN)NC(=O)[C@H](CCC(N)=O)NC(=O)[C@H](C)NC(=O)CNC(=O)[C@H](CCCCN)NC(=O)[C@H](Cc2ccc(O)cc2)NC(=O)[C@H](CCCCN)NC(=O)[C@H](CCCNC(=N)N)NC(=O)[C@H](C)NC(=O)COCCOCCNC(=O)COCCOCCNC(=O)CC[C@H](NC(=O)CC[C@H](NC(=O)CC[C@H](NC(=O)CC[C@H](NC(=O)CC[C@H](NC(=O)CCCCCCCCCCCCCCCCC(=O)O)C(=O)O)C(=O)O)C(=O)O)C(=O)O)C(=O)O)CSSC[C@@H](C(=O)O)NC(=O)CNC(=O)[C@H](CC(C)C)NC(=O)CNC(=O)[C@H](CO)NC(=O)[C@H](CC(C)C)NC(=O)[C@H](CO)NC(=O)CNC1=O [compound 1453] ({C18 diacid-γGlu-γGlu-γGlu-γGlu-γGlu-AEEA-AEEA}-ARKYKGAQKKGLSQGCFGLPLDRIGSLSGLGC-OH; disulfide 16-32)
solubility [1]: 7.88 mM (≈ 35.8 mg/mL)

CC[C@H](C)[C@@H]1NC(=O)[C@H](CCCNC(=N)N)NC(=O)[C@H](CCC(=O)O)NC(=O)[C@H](CC(C)C)NC(=O)[C@@H]2CCCN2C(=O)[C@H](CC(C)C)NC(=O)CNC(=O)[C@H](Cc2ccccc2)NC(=O)[C@@H](NC(=O)CNC(=O)[C@H](CO)NC(=O)[C@H](CO)NC(=O)[C@H](CC(C)C)NC(=O)CNC(=O)[C@H](CCCCN)NC(=O)[C@H](CCCCN)NC(=O)[C@H](CCC(N)=O)NC(=O)[C@H](C)NC(=O)CNC(=O)[C@H](CCCCN)NC(=O)[C@H](Cc2ccc(O)cc2)NC(=O)[C@H](CCCCN)NC(=O)[C@H](CCCNC(=N)N)NC(=O)[C@H](C)NC(=O)[C@H](CCC(N)=O)NC(=O)[C@@H]2CCCN2C(=O)[C@H](Cc2c[nH]cn2)NC(=O)[C@H](CCC(=O)O)NC(=O)[C@H](CCC(N)=O)NC(=O)CC[C@H](NC(=O)CC[C@H](NC(=O)CC[C@H](NC(=O)CC[C@H](NC(=O)CCCCCCCCCCCCCCCCC(=O)O)C(=O)O)C(=O)O)C(=O)O)C(=O)O)CSSC[C@@H](C(=O)O)NC(=O)CNC(=O)[C@H](CC(C)C)NC(=O)CNC(=O)[C@H](CO)NC(=O)[C@H](CC(C)C)NC(=O)[C@H](CO)NC(=O)CNC1=O [compound 9483] ({C18 diacid-γGlu-γGlu-γGlu-γGlu}-QEHPQARKYKGAQKKGLSSGCFGLPLERIGSLSGLGC-OH; disulfide 21-37)
solubility (pH 4): 4.96 mM (≈ 23.4 mg/mL)

CC[C@H](C)[C@@H]1NC(=O)[C@H](CCCNC(=N)N)NC(=O)[C@H](CC(=O)O)NC(=O)[C@H](CC(C)C)NC(=O)[C@@H]2CCCN2C(=O)[C@H](CC(C)C)NC(=O)CNC(=O)[C@H](Cc2ccccc2)NC(=O)[C@@H](NC(=O)CNC(=O)[C@H](CCC(N)=O)NC(=O)[C@H](CO)NC(=O)[C@H](CC(C)C)NC(=O)CNC(=O)[C@H](CCCCN)NC(=O)[C@H](CCCCN)NC(=O)[C@H](CCC(N)=O)NC(=O)[C@H](C)NC(=O)CNC(=O)[C@H](CCCCN)NC(=O)[C@H](Cc2ccc(O)cc2)NC(=O)[C@H](CCCCN)NC(=O)[C@H](CCCNC(=N)N)NC(=O)[C@H](C)NC(=O)[C@H](CCC(N)=O)NC(=O)[C@@H]2CCCN2C(=O)[C@H](Cc2c[nH]cn2)NC(=O)[C@H](CCC(=O)O)NC(=O)[C@H](CCC(N)=O)NC(=O)COCCOCCNC(=O)COCCOCCNC(=O)CC[C@H](NC(=O)CC[C@H](NC(=O)CC[C@H](NC(=O)CC[C@H](NC(=O)CC[C@H](NC(=O)CC[C@H](NC(=O)CCCCCCCCCCCCCCCCC(=O)O)C(=O)O)C(=O)O)C(=O)O)C(=O)O)C(=O)O)C(=O)O)CSSC[C@@H](C(=O)O)NC(=O)CNC(=O)[C@H](CC(C)C)NC(=O)CNC(=O)[C@H](CO)NC(=O)[C@H](CC(C)C)NC(=O)[C@H](CO)NC(=O)CNC1=O [compound 1402] ({C18 diacid-γGlu-γGlu-γGlu-γGlu-γGlu-γGlu-AEEA-AEEA}-QEHPQARKYKGAQKKGLSQGCFGLPLDRIGSLSGLGC-OH; disulfide 21-37)
solubility [1]: 10 mM (≈ 53 mg/mL)

CC[C@H](C)[C@@H]1NC(=O)[C@H](CCCNC(=N)N)NC(=O)[C@H](CC(=O)O)NC(=O)[C@H](CC(C)C)NC(=O)[C@@H]2CCCN2C(=O)[C@H](CC(C)C)NC(=O)CNC(=O)[C@H](Cc2ccccc2)NC(=O)[C@@H](NC(=O)CNC(=O)[C@H](CO)NC(=O)[C@H](CO)NC(=O)[C@@H](NC(=O)CNC(=O)[C@@H](NC(=O)[C@H](CCCCN)NC(=O)[C@H](CCC(N)=O)NC(=O)[C@H](C)NC(=O)CNC(=O)[C@H](Cc2c[nH]cn2)NC(=O)[C@H](Cc2ccc(O)cc2)NC(=O)COCCOCCNC(=O)COCCOCCNC(=O)CC[C@H](NC(=O)CCCCCCCCCCCCCCCCC(=O)O)C(=O)O)[C@@H](C)O)C(C)C)CSSC[C@@H](C(=O)O)NC(=O)CNC(=O)[C@H](CC(C)C)NC(=O)CNC(=O)[C@H](CO)NC(=O)[C@H](CC(C)C)NC(=O)[C@H](CO)NC(=O)CNC1=O [compound 1303] ({C18 diacid-γGlu-AEEA-AEEA}-YHGAQKTGVSSGCFGLPLDRIGSLSGLGC-OH; disulfide 13-29)
solubility [1]: 4.84 mM (≈ 17.4 mg/mL)

CC[C@H](C)[C@@H]1NC(=O)[C@H](CCCNC(=N)N)NC(=O)[C@H](CC(=O)O)NC(=O)[C@H](CC(C)C)NC(=O)[C@@H]2CCCN2C(=O)[C@H](CC(C)C)NC(=O)CNC(=O)[C@H](Cc2ccccc2)NC(=O)[C@@H](NC(=O)CNC(=O)[C@H](CCC(N)=O)NC(=O)[C@H](CO)NC(=O)CNC(=O)CNC(=O)[C@H](CCCCN)NC(=O)[C@H](Cc2c[nH]cn2)NC(=O)[C@H](CCC(N)=O)NC(=O)[C@H](C)NC(=O)CNC(=O)[C@H](CCC(=O)O)NC(=O)[C@H](Cc2ccc(O)cc2)NC(=O)[C@H](CCCCN)NC(=O)[C@H](CCCNC(=N)N)NC(=O)[C@H](C)NC(=O)COCCOCCNC(=O)COCCOCCNC(=O)COCCOCCNC(=O)COCCOCCNC(=O)CC[C@H](NC(=O)CC[C@H](NC(=O)CCCCCCCCCCCCCCCCC(=O)O)C(=O)O)C(=O)O)CSSC[C@@H](C(=O)O)NC(=O)CNC(=O)[C@H](CC(C)C)NC(=O)CNC(=O)[C@H](CO)NC(=O)[C@H](CC(C)C)NC(=O)[C@H](CO)NC(=O)CNC1=O [compound 1432] ({C18 diacid-γGlu-γGlu-AEEA-AEEA-AEEA-AEEA}-ARKYEGAQHKGGSQGCFGLPLDRIGSLSGLGC-OH; disulfide 16-32)
solubility [1]: 9.83 mM (≈ 43.2 mg/mL)

CC[C@H](C)[C@@H]1NC(=O)[C@H](CCCNC(=N)N)NC(=O)[C@H](CC(=O)O)NC(=O)[C@H](CC(C)C)NC(=O)[C@@H]2CCCN2C(=O)[C@H](CC(C)C)NC(=O)CNC(=O)[C@H](Cc2ccccc2)NC(=O)[C@@H](NC(=O)CNC(=O)[C@H](CCC(N)=O)NC(=O)[C@H](CO)NC(=O)[C@H](CC(C)C)NC(=O)CNC(=O)[C@H](CCCCN)NC(=O)[C@H](CCCCN)NC(=O)[C@H](CCC(N)=O)NC(=O)[C@H](C)NC(=O)CNC(=O)[C@H](CCCCN)NC(=O)[C@H](Cc2ccc(O)cc2)NC(=O)COCCOCCNC(=O)COCCOCCNC(=O)COCCOCCNC(=O)COCCOCCNC(=O)CC[C@H](NC(=O)CC[C@H](NC(=O)CCCCCCCCCCCCCCCCC(=O)O)C(=O)O)C(=O)O)CSSC[C@@H](C(=O)O)NC(=O)CNC(=O)[C@H](CC(C)C)NC(=O)CNC(=O)[C@H](CO)NC(=O)[C@H](CC(C)C)NC(=O)[C@H](CO)NC(=O)CNC1=O [compound 1478] ({C18 diacid-γGlu-γGlu-AEEA-AEEA-AEEA-AEEA}-YKGAQKKGLSQGCFGLPLDRIGSLSGLGC-OH; disulfide 13-29; C-terminus assumed)
solubility (5 mM sodium acetate, 250 mM glycerol, pH 4.0, room temperature, read-out: Solubility at pH 4.0): 6.51 mM (≈ 26.6 mg/mL) | solubility [1]: 2.18 mM (≈ 8.9 mg/mL)

CC[C@H](C)[C@@H]1NC(=O)[C@H](CCCNC(=N)N)NC(=O)[C@H](CC(=O)O)NC(=O)[C@H](CC(C)C)NC(=O)[C@@H]2CCCN2C(=O)[C@H](CC(C)C)NC(=O)CNC(=O)[C@H](Cc2ccccc2)NC(=O)[C@@H](NC(=O)CNC(=O)[C@H](CO)NC(=O)[C@H](CO)NC(=O)[C@H](CC(C)C)NC(=O)CNC(=O)[C@H](CCCCN)NC(=O)[C@H](CCCCN)NC(=O)[C@H](CCC(N)=O)NC(=O)[C@H](C)NC(=O)CNC(=O)[C@H](Cc2c[nH]cn2)NC(=O)[C@H](CCC(=O)O)NC(=O)COCCOCCNC(=O)COCCOCCNC(=O)CC[C@H](NC(=O)CCCCCCCCCCCCCCCCC(=O)O)C(=O)O)CSSC[C@@H](C(=O)O)NC(=O)CNC(=O)[C@H](CC(C)C)NC(=O)CNC(=O)[C@H](CO)NC(=O)[C@H](CC(C)C)NC(=O)[C@H](CO)NC(=O)CNC1=O [compound 1310] ({C18 diacid-γGlu-AEEA-AEEA}-EHGAQKKGLSSGCFGLPLDRIGSLSGLGC-OH; disulfide 13-29)
solubility [1]: 7.61 mM (≈ 27.4 mg/mL)

CC[C@H](C)[C@@H]1NC(=O)[C@H](CCCNC(=N)N)NC(=O)[C@H](CC(=O)O)NC(=O)[C@H](CC(C)C)NC(=O)[C@@H]2CCCN2C(=O)[C@H](CC(C)C)NC(=O)CNC(=O)[C@H](Cc2ccccc2)NC(=O)[C@@H](NC(=O)CNC(=O)[C@H](CCC(N)=O)NC(=O)[C@H](CO)NC(=O)[C@H](CO)NC(=O)CNC(=O)[C@H](CCCCN)NC(=O)[C@H](CCCCN)NC(=O)[C@H](CCC(N)=O)NC(=O)[C@H](C)NC(=O)CNC(=O)[C@@H]2CCCN2C(=O)[C@H](C)NC(=O)[C@H](CCC(N)=O)NC(=O)CNC(=O)[C@@H]2CCCN2C(=O)[C@H](C)NC(=O)[C@H](CCC(N)=O)NC(=O)CNC(=O)[C@@H]2CCCN2C(=O)[C@H](C)NC(=O)[C@H](CCC(N)=O)NC(=O)CNC(=O)COCCOCCNC(=O)COCCOCCNC(=O)CC[C@H](NC(=O)CCCCCCCCCCCCCCCCC(=O)O)C(=O)O)CSSC[C@@H](C(=O)O)NC(=O)CNC(=O)[C@H](CC(C)C)NC(=O)CNC(=O)[C@H](CO)NC(=O)[C@H](CC(C)C)NC(=O)[C@H](CO)NC(=O)CNC1=O [compound 1457] ({C18 diacid-γGlu-AEEA-AEEA}-GQAPGQAPGQAPGAQKKGSSQGCFGLPLDRIGSLSGLGC-OH; disulfide 23-39)
solubility [1]: 8.96 mM (≈ 39.5 mg/mL)
